Measured values taken from patent publication US20140065223A1, “PERFLUORINATED COMPOUNDS FOR THE NON-VIRAL TRANSFER OF NUCLEIC ACIDS” (priority 2011, published 2014).

Test system: Cells of line HEK 293
Assay: Detection of absorption into the cell: transfection of HEK 293 cells, microscopy / confocal microscopy of rhodamine coloration
Format: cell-based
Procedure: To follow the path of the perfluorinated nucleic acids into the cell, the following construct with rhodamine linking was used: The compound was first dissolved in tetrahydrofuran (THF), and this solution was subsequently titrated in isopropanol. […] Cells of line HEK 293 were used as cell culture Transfection was performed one day after cell enlargement. As a control, a transfection was performed with pure rhodamine particles of equivalent rhodamine concentration to test the perfluorinated nucleic acids. […] One explanation of this is possible that the rhodamine is bound to the PFC particle in the perfluorinated nucleic acids and sinks to the bottom as a small particle, whereas the dye is completely dissolved in the medium with pure rhodamine. […] The endosomes and lysosomes filled with perfluorinated nucleic acids were detected throughout the cell cytoplasm.

Substance: rhodamine [pure rhodamine]
- coloration of the cells (20 minutes after transfection): no defined coloration could be seen
- coloration of the cells (24 hours after transfection): substantially weaker and diffuse in comparison on the cell surface instead of in the cytoplasm and granular
